Here are results for six molecules from publication PMC5617480 (Oncotarget, 2017).

Read-outs that look alike come from different tables or passages of the source. Some results are limits rather than exact numbers.

As a reminder, the IC50 is the concentration that gives 50% inhibition.

The test system of test [1] is c-kit-2. The test can be described thus: FID assay. The test is classed as binding. Particulars: for c-kit-2DC50: FID; for ctDNADC50/c-kit-2DC50: FID selectivity ratio.
Test [2] deals with c-kit-1. Description: FID assay. Format: binding. The settings on record: for c-kit-1DC50: FID; for ctDNADC50/c-kit-1DC50: FID selectivity ratio.
Test [3] concerns BEL-7404 cells. The test can be described thus: Cell cycle analysis (PI flow cytometry). Format: cell-based, human. Particulars: BEL-7404, 10 μM, 48 h; untreated 24.76%. Here is the method: (§1) Platinum(II)-based drugs were widely used in anticancer chemotherapies, therefore, we performed experiments to test the potency of chiral platinum(II) complexes 4–6 for inducing senescence and apoptosis in BEL-7404 cells. […] We next investigated the effect of complexes 4–6 on the induction of apoptosis. BEL-7404 cells were incubated with complexes 4 (10 and 20 μM), 5 (10 and 20 μM) and 6 (5, 10 and 20 μM) for 24 h, respectively, and then these cells staining with PI and Annexin-V-FITC were determined by flow cytometry (Figure 3A and Supplementary Figure 18). As shown in Figure 3A and Supplementary Figure 18, after treated of complexes 4–6 with 10 μM for 24 h, the percentage of apoptotic cells (including early-stage and late-stage, Q2+Q4) was 13.1%, 7.0% and 25.4%, respectively, whereas the normal cells was only 6.1%. We further investigated the ability of complexes 4–6 (5, 10 and 20 μM) to induce BEL-7404 cell cycle arrest (Figure 3B and Supplementary Figure 19). Cells were treated with complexes 4–6 at 10 μM for 48 h, the cell cycle arrest was determined by using flow cytometry. […]
(§2) Apoptosis analysis c-myc antibody, or anti-β-actin primary antibody and the Apoptosis was detected by flow cytometric analysis corresponding secondary antibody were used to detect of annexin V staining. […] Then, cells were incubated with annexin V-FITC and PI for 1.0 h at Staining for SA-β-Gal activity was carried out room temperature in the dark and immediately analyzed according to Moore and Chen reports. […] The data are presented as biparametric After the long-term incubation with complexes 4–6, the dot plots showing PI red fluorescence vs annexin V-FITC growth medium was aspirated and the BEL-7404 cells green fluorescence. were fixed in 2% formaldehyde/0.2% glutaraldehyde for 15.0 min at room temperature. […] Finally, the extraction, RT-PCR, and the selective binding to G4s by BEL-7404 cell cycle was determined with FACS Calibur complexes 4–6 was according to the our previous reported flow cytometer (BD) and analyzed using Cell Quest. […]
In general terms: In flow cytometry, cells or beads pass a laser one at a time.

In test [4] the test system is BEL-7404 cells. The test can be described thus: Apoptosis analysis (annexin V-FITC/PI flow cytometry). Format: cell-based, human. Particulars: BEL-7404, 10 μM, 24 h; untreated 6.1%. Here is the method: as §1, §2
Test [5] relates to Pu27 / G4-Pu27 DNA. Description: CD spectroscopy. Format: binding. Also noted: key to Extent of change at 290―295 nm (%): “—”represents no obvious changes in the peaks. The settings on record: DNA 10 μM, compound 20 μM; for Extent of change at 250―265 nm (%): given with ↓; for Extent of change at 290―295 nm (%): Pu27 (G4-Pu27). Here is the method: We asked whether chiral platinum(II) complexes 4–6 have the ability to bind to G-quadruplex DNA. To address this, FRET assays, CD spectroscopy, G4-FID assays, and fluorescence titration analysis were performed. […] For G4-HTG21, the ^G4DC50 values of complexes 4–6 were 1.23, 1.26 and 0.99 μM, respectively; while, for G4-Pu27, the ^G4DC50 values were 1.01, 0.89, and 0.82 μM, respectively. In addition, the ^ctDNADC50/^G4DC50 ratio of the HTG21 and Pu27 G4s treated with complexes 4–6 was in the range of 50.54-90.65 and 71.56-110.67 folds, respectively. To further evaluate the binding ability of complexes 4–6 to Pu27 and HTG21G4s, CD spectroscopy and fluorescence titration analysis were performed. […] The quenching ability of complexes 4–6 to HTG21 and Pu27 G4 DNA fluorescence can be quantitatively estimated by their respective quenching constant (Kq), which was derived from the Stern-Volmer quenching equation. […] Finally, the selective binding of complexes 4–6 towards G4 DNA was analyzed by FRET-melting assays. […] In contrast, the ΔTm value for the F32T+H20M duplex DNA in the presence of complexes 4–6 was 1.18, 1.34, and 0.78 °C under the same conditions (Figure 4A). Altogether, our data indicated complexes 4–6, especially complex 6, is the best binder to G4 DNA, which caused DNA complex displaying the highest thermodynamic stability.
www.impactjournals.com/oncotarget/ Oncotarget, Supplementary Materials 2017 […]
Supplementary Figure 23: CD spectra of Pu27 DNA (10 μM) in the absence of K+ upon addition of compounds (20 μM).

For test [6], the system named is HTG21 (DNA, G4) GGGTTAGGGTTAGGGTTAGGG
Description: fluorescent intercalator displacement (FID). Particulars: thiazole orange displaced.

Test [7] has as its system MGC80-3 cells. Also noted: method as in earlier work. Particulars: MGC80-3, 48 h; ref [1]; cited from earlier work.
Test [8] deals with c-kit-1. Also noted: method as in earlier work. Particulars: ref [1], cited from earlier work; for ctDNADC50/c-kit-1DC50: FID selectivity ratio; for c-kit-1DC50: FID.

On to cis-[PtCl2(S-(–)-FOA)] [complex 6], for which, in test [1], the c-kit-2DC50 was 4.78 µM and the ctDNADC50/c-kit-2DC50 amounted to 18.98. Moreover, in test [2], the c-kit-1DC50 came to 1.75 µM and the ctDNADC50/c-kit-1DC50 stood at 51.85. In test [3], the “percentage of cells at S phase” value is reported as 38.61%. Further, the “percentage of apoptotic cells (early-stage and late-stage, Q2+Q4)” value (“percentage of apoptotic cells” below) in test [4] was determined as 25.4%. The “Extent of change at 250―265 nm (%)” value in test [5] (G4-Pu27 (presence of K+)) is recorded as 76.23%. Moreover, in test [5], the “Extent of change at 290―295 nm (%)” value was “—”. For the same molecule, the “Extent of change at 250―265 nm (%)” value in test [5] (Pu27 (absence of K+)) amounted to 80.88%.

As to `O=C(NC[C@@H](O)CO)c1cnc2c3c(cccc13)-c1ccccc1C2=O.[Cl-].[Cl-].[Pt+2]` [ligand 2, R-(+)-FOA], the G4DC50 in test [6] amounted to 1.26 µM. Besides, in test [7], the IC50 was 45.8 ± 2.8 µM. Also, in test [8], the ctDNADC50/c-kit-1DC50 was under 0.40 and the c-kit-1DC50 was over 100 µM.

`O=C(NCC(O)CO)c1cnc2c3c(cccc13)-c1ccccc1C2=O.[Cl-].[Cl-].[Pt+2]` (racemic) [ligand 1, R/S-(±)-FOA] yielded a G4DC50 in test [6] of 1.23 µM. Also, the IC50 in test [7] was 32.4 ± 0.8 µM. Also, in test [8], the ctDNADC50/c-kit-1DC50 is 0.96 and the c-kit-1DC50 is 66.35 µM.

Take `O=C(NC[C@H](O)CO)c1cnc2c3c(cccc13)-c1ccccc1C2=O.[Cl-].[Cl-].[Pt+2]` [ligand 3, S-(–)-FOA]: the G4DC50 in test [6] turned out to be 0.99 µM. Further, in test [7], the IC50 is 35.7 ± 2.9 µM. In addition, in test [8], the ctDNADC50/c-kit-1DC50 is 36.66 and the c-kit-1DC50 is 2.45 µM.

Turning to cis-[PtCl2(R/S-(±)-FOA)] [complex 4], in test [1], the c-kit-2DC50 turned out to be 2.48 µM and the ctDNADC50/c-kit-2DC50 was found to be 30.59. Besides, in test [2], the c-kit-1DC50 was 1.45 µM and the ctDNADC50/c-kit-1DC50 is given as 52.32. The “percentage of cells at S phase” value in test [3] is reported as 37.59%. The “percentage of apoptotic cells” value in test [4] was 13.1%. In addition, the “Extent of change at 250―265 nm (%)” value in test [5] (G4-Pu27 (presence of K+)) is on record as 67.47%. In addition, in test [5], the “Extent of change at 290―295 nm (%)” value is recorded as “—”. Further, in test [5] (Pu27 (absence of K+)), the “Extent of change at 250―265 nm (%)” value turned out to be 72.16%.

In the case of cis-[PtCl2(R-(+)-FOA)] [complex 5], in test [1], the c-kit-2DC50 turned out to be 3.08 µM and the ctDNADC50/c-kit-2DC50 is listed as 20.68. In test [2], the c-kit-1DC50 came out at 23.89 µM and the ctDNADC50/c-kit-1DC50 is 2.67. Moreover, the “percentage of cells at S phase” value in test [3] is listed as 32.33%. Also, the “percentage of apoptotic cells” value in test [4] was 7.0%. Also, in test [5] (G4-Pu27 (presence of K+)), the “Extent of change at 250―265 nm (%)” value is on record as 57.01%. For the same molecule, the “Extent of change at 290―295 nm (%)” value in test [5] is on record as “—”. Also, the “Extent of change at 250―265 nm (%)” value in test [5] (Pu27 (absence of K+)) was found to be 62.63%.
